# From the supplement of paper PMC9663587
# Key:
# Assay in all cases: area over the GR curve, 72 h; higher = more effect;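 note: Dye Drop or Deep Dye Drop imaging of viable cells in 384-well plates (Hoechst nuclei, LIVE/DEAD dye), nine half-log doses, GR normalized to DMSO controls and time-zero plates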
# ZR7530 = tested on: ZR7530
# BT20 = tested on: BT20
# HCC1806 = tested on: HCC1806
# HCC1937 = tested on: HCC1937
# HCC202 = tested on: HCC202
# PDXHCI002 = tested on: PDXHCI002
# HTERT_HME1 = tested on: HTERT_HME1
# EFM19 = tested on: EFM19
# SUM1315 = tested on: SUM1315
# MDAMB468 = tested on: MDAMB468
# UACC812 = tested on: UACC812
# SUM159 = tested on: SUM159
Compound,area over the GR curve (ZR7530),area over the GR curve (BT20),area over the GR curve (HCC1806),area over the GR curve (HCC1937),area over the GR curve (HCC202),area over the GR curve (PDXHCI002),area over the GR curve (HTERT_HME1),area over the GR curve (EFM19),area over the GR curve (SUM1315),area over the GR curve (MDAMB468),area over the GR curve (UACC812),area over the GR curve (SUM159),area over the GR curve (BT20; main component drawn),area over the GR curve (HCC1806; main component drawn),area over the GR curve (HCC1937; main component drawn),area over the GR curve (PDXHCI002; main component drawn),area over the GR curve (HTERT_HME1; main component drawn),area over the GR curve (SUM1315; main component drawn),area over the GR curve (MDAMB468; main component drawn),area over the GR curve (SUM159; main component drawn)
C[C@@H]1COCCN1c1cc(C2([S@](C)(=N)=O)CC2)nc(-c2cc[nH]c3nccc2-3)n1 [AZD6738] (max 10 µM),-0.0333 GR,-0.0437 GR,0.307 GR,-0.0947 GR,0.0023 GR,0.0278 GR,-0.0027 GR,0.0109 GR,0.0543 GR,0.0381 GR,-0.0578 GR,0.0107 GR,,,,,,,,
NC(=O)Nc1cc(-c2cccc(F)c2)sc1C(=O)N[C@H]1CCCNC1 [AZD7762] (max 10 µM),0.199 GR,0.197 GR,0.89 GR,0.447 GR,0.652 GR,0.694 GR,0.435 GR,0.222 GR,0.68 GR,0.487 GR,1.02 GR,0.277 GR,,,,,,,,
Cc1nc(NC(=O)N2CCC[C@H]2C(N)=O)sc1-c1ccnc(C(C)(C)C(F)(F)F)c1 [Alpelisib/BYL719] (max 10 µM),0.351 GR,0.201 GR,0.0386 GR,0.0501 GR,0.351 GR,0.063 GR,0.112 GR,0.445 GR,0.116 GR,0.0301 GR,0.381 GR,0.056 GR,,,,,,,,
CN(C)C/C=C/C(=O)Nc1ccc(O[C@@H]2CCC[C@@H](Nc3ncc(Cl)c(-c4c[nH]c5ccccc45)n3)C2)cc1 [BSJ-01-175] (max 10 µM),0.989 GR,0.812 GR,0.581 GR,0.462 GR,0.685 GR,0.906 GR,0.955 GR,0.3 GR,0.509 GR,0.892 GR,0.571 GR,0.646 GR,,,,,,,,
CC(=O)c1c(C)c2cnc(Nc3ccc(N4CCN(CCOCCOCCOCCNC(=O)COc5cccc6c5C(=O)N(C5CCC(=O)NC5=O)C6=O)CC4)cn3)nc2n(C2CCCC2)c1=O (configuration not stated) [BSJ-03-123] (max 10 µM),0.387 GR,0.423 GR,0.21 GR,0.0357 GR,0.221 GR,0.246 GR,0.422 GR,0.318 GR,0.312 GR,0.265 GR,0.367 GR,0.265 GR,,,,,,,,
CC(C)Nc1cc(-c2c[nH]c(C(=O)N[C@H](CO)c3cccc(Cl)c3)c2)c(Cl)cn1 [BVD523] (max 10 µM),0.08 GR,0.132 GR,0.0314 GR,0.119 GR,0.174 GR,0.168 GR,0.443 GR,0.0226 GR,0.0786 GR,0.267 GR,0.305 GR,0.254 GR,,,,,,,,
Cc1c(N)nc([C@H](CC(N)=O)NC[C@H](N)C(N)=O)nc1C(=O)N[C@H](C(=O)N[C@H](C)[C@@H](O)[C@H](C)C(=O)N[C@H](C(=O)NCCc1nc(-c2nc(C(=O)NCCC[S+](C)C)cs2)cs1)[C@@H](C)O)[C@@H](OC1OC(CO)C(O)C(O)C1OC1OC(CO)C(O)C(OC(N)=O)C1O)c1cnc[nH]1 (some centres not stated) [Bleomycin] (max 10 µM),,,,,,,,,,,,,0.376 GR,0.117 GR,0.416 GR,0.272 GR,0.48 GR,0.41 GR,0.325 GR,0.463 GR
Nc1cc(C(F)(F)F)c(-c2cc(N3CCOCC3)nc(N3CCOCC3)n2)cn1 [Buparlisib/NVP-BKM120] (max 10 µM),0.371 GR,0.359 GR,0.305 GR,0.263 GR,0.371 GR,0.229 GR,0.243 GR,0.323 GR,0.438 GR,0.357 GR,0.806 GR,0.184 GR,,,,,,,,
COc1cc2nccc(Oc3ccc(NC(=O)C4(C(=O)Nc5ccc(F)cc5)CC4)cc3)c2cc1OC [Cabozantinib] (max 10 µM),0.174 GR,0.0446 GR,-0.021 GR,0.0053 GR,-0.0223 GR,0.0362 GR,0.0866 GR,-0.0111 GR,0.105 GR,0.0415 GR,-0.092 GR,0.059 GR,,,,,,,,
COc1cc2c(Oc3ccc4[nH]c(C)cc4c3F)ncnc2cc1OCCCN1CCCC1 [Cediranib/AZD2171] (max 10 µM),0.0237 GR,0.0199 GR,0.0606 GR,0.044 GR,0.0677 GR,0.255 GR,-0.0207 GR,0.0327 GR,0.243 GR,0.165 GR,0.342 GR,0.0309 GR,,,,,,,,
Cc1cc(Nc2ncc(Cl)c(Nc3ccccc3S(=O)(=O)C(C)C)n2)c(OC(C)C)cc1C1CCNCC1 [Ceritinib/LDK378] (max 10 µM),0.0423 GR,0.255 GR,0.156 GR,0.133 GR,0.119 GR,0.503 GR,0.286 GR,0.0971 GR,0.413 GR,0.405 GR,0.085 GR,0.213 GR,,,,,,,,
Cc1nc(Nc2ncc(C(=O)Nc3c(C)cccc3Cl)s2)cc(N2CCN(CCO)CC2)n1 [Dasatinib] (max 10 µM),0.426 GR,0.329 GR,0.63 GR,0.442 GR,0.779 GR,0.376 GR,0.415 GR,0.685 GR,0.74 GR,0.143 GR,1.15 GR,0.0885 GR,,,,,,,,
COc1cccc2c1C(=O)c1c(O)c3c(c(O)c1C2=O)C[C@@](O)(C(=O)CO)C[C@@H]3O[C@H]1C[C@H](N)[C@H](O)[C@H](C)O1 [Doxorubicin] (max 3.162 µM),0.552 GR,0.828 GR,0.628 GR,0.579 GR,0.358 GR,0.969 GR,0.836 GR,0.448 GR,0.513 GR,0.912 GR,1.18 GR,0.624 GR,,,,,,,,
COc1cc([C@@H]2c3cc4c(cc3[C@@H](O[C@@H]3O[C@@H]5CO[C@@H](C)O[C@H]5[C@H](O)[C@H]3O)[C@H]3COC(=O)[C@H]23)OCO4)cc(OC)c1O [Etoposide] (max 10 µM),,0.459 GR,0.648 GR,0.393 GR,,0.488 GR,0.542 GR,,0.381 GR,0.429 GR,,0.413 GR,,,,,,,,
CO[C@H]1C[C@@H]2CC[C@@H](C)[C@@](O)(O2)C(=O)C(=O)N2CCCC[C@H]2C(=O)O[C@H]([C@H](C)C[C@@H]2CC[C@@H](OCCO)[C@H](OC)C2)CC(=O)[C@H](C)/C=C(\C)[C@@H](O)[C@@H](OC)C(=O)[C@H](C)C[C@H](C)/C=C/C=C/C=C/1C [Everolimus] (max 10 µM),0.598 GR,0.593 GR,0.197 GR,0.335 GR,0.499 GR,-0.0896 GR,0.371 GR,0.731 GR,0.454 GR,0.429 GR,0.984 GR,0.108 GR,,,,,,,,
CCC(=O)Nc1ccc(C(=O)Nc2ccc(Nc3ncc4c(n3)N(C)c3ccc(C)cc3C(=O)N4C)cc2)cc1 [FMF-03-145-1],0.918 GR,1.2 GR,1.08 GR,0.464 GR,0.602 GR,0.915 GR,0.44 GR,0.341 GR,0.539 GR,0.572 GR,1.04 GR,0.476 GR,,,,,,,,
CC[C@@]1(O)C(=O)OCc2c1cc1n(c2=O)Cc2cc3c(CN(C)C)c(O)ccc3nc2-1 [Topotecan] (max 10 µM),,1.03 GR,1.07 GR,0.837 GR,,1.02 GR,0.873 GR,,0.769 GR,1.07 GR,,0.864 GR,,,,,,,,
